In ChEMBL document CHEMBL1909046, “DrugMatrix in vitro pharmacology data”:

What was measured:
[1] = target: C-C chemokine receptor type 5 (Homo sapiens, UniProt P51681); assay type: cell membranes, HEK293, Membrane; conditions: hek293; note: in other assays of this panel Not Active means under 50% inhibition at 10 µM
[2] = target: T1, Cholecystokinin receptor type A (Homo sapiens, UniProt P32238); assay type: cell membranes, Membrane; conditions: 1321-n1; note: in other assays of this panel Not Active means under 50% inhibition at 10 µM
T1 sequence (P32238 whole entry): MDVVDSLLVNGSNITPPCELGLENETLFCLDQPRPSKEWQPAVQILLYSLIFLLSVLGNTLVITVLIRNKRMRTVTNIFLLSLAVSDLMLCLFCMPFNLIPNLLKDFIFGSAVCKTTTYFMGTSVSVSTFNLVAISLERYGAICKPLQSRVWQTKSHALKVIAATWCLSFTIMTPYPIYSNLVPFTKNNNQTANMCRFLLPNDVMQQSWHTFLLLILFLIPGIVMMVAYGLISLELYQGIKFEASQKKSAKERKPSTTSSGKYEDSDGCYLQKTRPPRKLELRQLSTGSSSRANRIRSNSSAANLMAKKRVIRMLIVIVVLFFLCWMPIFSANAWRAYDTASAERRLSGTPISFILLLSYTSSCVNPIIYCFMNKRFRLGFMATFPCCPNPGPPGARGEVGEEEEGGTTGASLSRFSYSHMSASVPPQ

[3] = target: D(3) dopamine receptor (Homo sapiens, UniProt P35462); assay: DRUGMATRIX: Dopamine D3 radioligand binding (ligand: [3H] Spiperone); assay type: cell membranes, CHO, Membrane
[4] = DRUGMATRIX: Leukotriene, BLT (LTB4) radioligand binding (ligand: [3H]LTB4); assay type: cell membranes, Membrane; conditions: u-937; Not Active = under 50% inhibition at 10 µM
[5] = DRUGMATRIX: Phosphodiesterase PDE4 enzyme inhibition (substrate: [3H]cAMP + cAMP); conditions: u-937; Not Active = under 50% inhibition at 10 µM
[6] = target: T2, Neutrophil elastase (Homo sapiens, UniProt P08246); assay type: tissue-based;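 note: inhibition of neutrophil elastase enzyme activity, measured with a p-nitroanilide-linked peptide substrate; in other assays of this panel Not Active means under 50% inhibition at 10 µM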
T2 sequence (P08246 whole entry): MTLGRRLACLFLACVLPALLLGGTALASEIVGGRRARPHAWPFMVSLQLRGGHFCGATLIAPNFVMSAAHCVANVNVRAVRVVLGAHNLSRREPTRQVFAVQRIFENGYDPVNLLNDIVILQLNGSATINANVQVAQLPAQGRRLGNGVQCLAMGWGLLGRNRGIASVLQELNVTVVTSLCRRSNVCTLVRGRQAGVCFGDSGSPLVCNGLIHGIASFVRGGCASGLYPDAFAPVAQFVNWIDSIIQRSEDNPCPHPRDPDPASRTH

[7] = target: T3, Interstitial collagenase (Homo sapiens, UniProt P03956); assay: biochemical; assay type: tissue-based, Rheumatoid synovial fibroblasts;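 note: MMP-1 enzyme inhibition assay using a peptide substrate; in other assays of this panel Not Active means under 50% inhibition at 10 µM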
T3 sequence (P03956 whole entry): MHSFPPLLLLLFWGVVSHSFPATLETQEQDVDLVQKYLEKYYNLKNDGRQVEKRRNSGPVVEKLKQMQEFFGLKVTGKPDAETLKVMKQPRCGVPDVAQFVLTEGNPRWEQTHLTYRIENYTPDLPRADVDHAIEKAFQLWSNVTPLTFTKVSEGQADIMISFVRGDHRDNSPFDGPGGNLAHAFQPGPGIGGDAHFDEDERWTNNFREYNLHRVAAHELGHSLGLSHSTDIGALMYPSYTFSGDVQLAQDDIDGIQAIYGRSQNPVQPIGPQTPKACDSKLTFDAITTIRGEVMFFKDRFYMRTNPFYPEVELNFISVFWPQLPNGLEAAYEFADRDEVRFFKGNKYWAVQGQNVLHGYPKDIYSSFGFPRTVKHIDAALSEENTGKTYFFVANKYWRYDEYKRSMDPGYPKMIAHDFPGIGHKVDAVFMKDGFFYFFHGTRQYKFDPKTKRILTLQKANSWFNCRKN

Sequence of C-C chemokine receptor type 5 (P51681 whole entry): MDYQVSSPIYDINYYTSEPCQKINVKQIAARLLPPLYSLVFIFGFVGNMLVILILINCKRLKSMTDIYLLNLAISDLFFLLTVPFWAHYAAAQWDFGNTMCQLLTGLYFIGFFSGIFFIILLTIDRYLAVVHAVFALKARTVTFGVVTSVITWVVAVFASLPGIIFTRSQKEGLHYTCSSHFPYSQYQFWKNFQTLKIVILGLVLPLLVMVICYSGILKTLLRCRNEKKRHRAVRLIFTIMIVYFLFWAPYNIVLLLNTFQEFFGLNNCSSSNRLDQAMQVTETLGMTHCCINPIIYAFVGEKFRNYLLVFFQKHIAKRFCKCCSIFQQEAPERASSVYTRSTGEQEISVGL
Sequence of D(3) dopamine receptor (P35462 whole entry): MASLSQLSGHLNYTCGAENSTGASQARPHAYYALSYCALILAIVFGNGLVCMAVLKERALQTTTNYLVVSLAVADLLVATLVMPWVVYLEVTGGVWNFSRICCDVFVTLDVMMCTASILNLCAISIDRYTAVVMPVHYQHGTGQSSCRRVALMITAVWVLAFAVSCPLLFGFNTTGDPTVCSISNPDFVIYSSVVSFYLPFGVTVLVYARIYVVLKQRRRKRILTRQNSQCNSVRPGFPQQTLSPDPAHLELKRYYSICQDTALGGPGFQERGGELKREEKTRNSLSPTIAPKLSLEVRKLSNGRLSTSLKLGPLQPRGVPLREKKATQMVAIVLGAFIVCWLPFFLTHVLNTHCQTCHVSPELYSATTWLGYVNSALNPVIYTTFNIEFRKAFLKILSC

| Molecule | IC50 [1] | IC50 [2] | IC50 ([3]; cho) | IC50 [4] | Ki [4] | IC50 [5] | Ki [5] | IC50 [6] | IC50 [7] | IC50 ([3]; read-out: IC50) | Ki ([3]; read-out: Ki) | Ki [1] | Ki [2] | Ki ([3]; cho) | Ki [6] | Ki [7] |
| --- | --- | --- | --- | --- | --- | --- | --- | --- | --- | --- | --- | --- | --- | --- | --- | --- |
| CNC[C@H](O)c1ccc(O)c(O)c1 [EPINEPHRINE] | Not Active | Not Active | Not Active | Not Active | Not Active | Not Active | Not Active | Not Active | Not Active |  |  |  |  |  |  |  |
| CCC1(c2ccccc2)C(=O)NC(=O)NC1=O [PHENOBARBITAL] | Not Active | Not Active | Not Active | Not Active | Not Active | Not Active | Not Active | Not Active | Not Active |  |  |  |  |  |  |  |
| CC1(COc2ccc(CC3SC(=O)NC3=O)cc2)CCCCC1 (stereo not given) [CIGLITAZONE] | Not Active | Not Active |  | Not Active | Not Active | Not Active | Not Active | Not Active | Not Active | 26.7 µM | 9.07 µM |  |  |  |  |  |
| O=C(O)CNCP(=O)(O)O [GLYPHOSATE] | Not Active | Not Active | Not Active | Not Active | Not Active | Not Active | Not Active | Not Active | Not Active |  |  |  |  |  |  |  |
| OC[C@H]1O[C@@H]2O[C@H]3[C@H](O)[C@@H](O)[C@@H](O[C@H]4[C@H](O)[C@@H](O)[C@@H](O[C@H]5[C@H](O)[C@@H](O)[C@@H](O[C@H]6[C@H](O)[C@@H](O)[C@@H](O[C@H]7[C@H](O)[C@@H](O)[C@@H](O[C@H]1[C@H](O)[C@H]2O)O[C@@H]7CO)O[C@@H]6CO)O[C@@H]5CO)O[C@@H]4CO)O[C@@H]3CO [ALFADEX] | Not Active | Not Active | Not Active | Not Active | Not Active | Not Active | Not Active | Not Active | Not Active |  |  |  |  |  |  |  |
| Nc1nc(F)nc2c1ncn2[C@@H]1O[C@H](CO)[C@@H](O)[C@@H]1O [FLUDARABINE] | Not Active | Not Active | Not Active | Not Active | Not Active | Not Active | Not Active | Not Active | Not Active |  |  |  |  |  |  |  |
| O=C(O)CO [GLYCOLIC ACID] | Not Active | Not Active | Not Active | Not Active | Not Active | Not Active | Not Active | Not Active | Not Active |  |  |  |  |  |  |  |
| O=C(NCCN1CCOCC1)c1ccc(Cl)cc1 [MOCLOBEMIDE] | Not Active | Not Active | Not Active | Not Active | Not Active | Not Active | Not Active | Not Active | Not Active |  |  |  |  |  |  |  |
| CARBOXYMETHYLCELLULOSE | Not Active | Not Active | Not Active | Not Active | Not Active | Not Active | Not Active | Not Active | Not Active |  |  | Not Active | Not Active | Not Active | Not Active | Not Active |
| COc1ccccc1OCCNCC(O)COc1cccc2[nH]c3ccccc3c12 (stereo not given) [CARVEDILOL] | Not Active | Not Active |  | Not Active | Not Active | Not Active | Not Active | Not Active | Not Active | 0.577 µM | 0.196 µM |  |  |  |  |  |
| NC(N)=Nc1nc(CSCCC(N)=NS(N)(=O)=O)cs1 [FAMOTIDINE] | Not Active | Not Active | Not Active | Not Active | Not Active | Not Active | Not Active | Not Active | Not Active |  |  |  |  |  |  |  |
| COc1ccc(C[C@H](N)C(=O)N[C@H]2[C@@H](O)[C@H](n3cnc4c(N(C)C)ncnc43)O[C@@H]2CO)cc1 [PUROMYCIN] | Not Active | Not Active | Not Active | Not Active | Not Active | Not Active | Not Active | Not Active | Not Active |  |  |  |  |  |  |  |
